Reference: patent US20190343828A1, “CAMPTOTHECIN PEPTIDE CONJUGATES” (SEATTLE GENETICS, INC., priority 2018, published 2019)

How the values were obtained:
[1] = test system: B-lymphocyte cancer cells (U266); assay: In vitro cytotoxicity, CellTiter-Glo 96 h, U266; details: Homo sapiens, U-266, read-out: Cytotoxic potency as free drug, IC50, U266
Experimental: (§1) In vitro potency was assessed on multiple cancer cell lines. All cell lines were authenticated by STR profiling at IDEXX Bioresearch and cultured for no more than 2 months after resuscitation. Cells cultured in log-phase growth were seeded for 24 hours in 96-well plates containing 150 μl RPMI 1640 supplemented with 20% FBS. Serial dilutions of antibody-drug conjugates in cell culture media were prepared at 4× working concentrations, and 50 μl of each dilution was added to the 96-well plates. Following addition of test articles, cells were incubated with test articles for 4 days at 37° C. After 96 hours, growth inhibition was assessed by CellTiter-Glo® (Promega, Madison, Wis.) and luminescence was measured on a plate reader.
(§2) Cell viability was determined by CellTiter-Glo staining after 96 h exposure to ADC. […] Ag1 is an antibody targeting a ubiquitous and readily internalizable antigen on cancer cells, Ag2 is cAC10 antibody targeting CD30(+) cancer cells, Ag3 is h1F6 antibody targeting CD70(+) cancer cells, Ag4 is hMEM102 antibody targeting CD48(+) cancer cells, Ag5 is h20F3 antibody targeting NTB-A expressing cancer cells, and h00 is a non-binding control antibody.

[2] = test system: renal carcinoma cells (786-O); assay: In vitro cytotoxicity, CellTiter-Glo 96 h, 786-O; details: Homo sapiens, 786-0, read-out: Cytotoxic potency (IC50 class), 786-O
Experimental: as §1
(§3) Cell viability was determined by CellTiter-Glo staining after 96 h exposure to ADC.

[3] = test system: pancreatic cancer cells (BxPC3); assay: In vitro cytotoxicity, CellTiter-Glo 96 h, BxPC3; details: Homo sapiens, BXPC-3, read-out: Cytotoxic potency (IC50 class), BxPC3
Experimental: as §1, §3

[4] = test system: acute promyelocytic leukemia cells (HL-60); assay: In vitro cytotoxicity, CellTiter-Glo 96 h, HL-60; details: Homo sapiens, HL-60, read-out: Cytotoxic potency (IC50 class), HL-60
Experimental: as §1, §2

[5] = test system: multiple myeloma cells (MM.1R); assay: In vitro cytotoxicity, CellTiter-Glo 96 h, MM.1R; details: read-out: Cytotoxic potency (IC50 class), MM.1R
Experimental: as §1, §2

[6] = test system: Burkitt's lymphoma cells (Ramos); assay: In vitro cytotoxicity, CellTiter-Glo 96 h, Ramos; details: Homo sapiens, read-out: Cytotoxic potency as free drug, IC50, Ramos
Experimental: as §1, §3

[7] = test system: Hodgkin's lymphoma cells (L540cy); assay: In vitro cytotoxicity, CellTiter-Glo 96 h, L540cy; details: read-out: Cytotoxic potency (IC50 class), L540cy
Experimental: as §1, §3

[8] = test system: acute myeloid leukemia cells (MOLM13); assay: In vitro cytotoxicity, CellTiter-Glo 96 h, MOLM13; details: Homo sapiens, MOLM-13, read-out: Cytotoxic potency as free drug, IC50, MOLM13
Experimental: as §1, §3

[9] = test system: multiple drug resistant acute promyelocytic leukemia cells (HL-60/RV); assay: In vitro cytotoxicity, CellTiter-Glo 96 h, HL60/RV; details: Homo sapiens, HL-60, read-out: Cytotoxic potency (IC50 class), HL60/RV
Experimental: as §1, §3

[10] = test system: melanoma cells (SK-MEL-5); assay: In vitro cytotoxicity, CellTiter-Glo 96 h, SK-MEL-5; details: Homo sapiens, SK-MEL-5, read-out: Cytotoxic potency as free drug, IC50, SK-MEL-5
Experimental: as §1, §2

[11] = test system: B-lymphocyte cancer cells (SU-DHL-4); assay: In vitro cytotoxicity, CellTiter-Glo 96 h, SU-DHL-4; details: Homo sapiens, SU-DHL-4, read-out: Cytotoxic potency as free drug, IC50, SU-DHL-4
Experimental: as §1, §2

`CC[C@@]1(O)C(=O)OCc2c1cc1n(c2=O)Cc2c-1nc1cc3c(cc1c2CN)OCO3` [Compound 4, 7-methylamino Derivative-methylenedioxy camptothecin] was tested, and the IC50 [1] was 1 to 10 nM, the IC50 [2] was 1 to 10 nM and the IC50 [3] was 1 to 10 nM. It also gave an IC50 [4] of 10 to 100 nM, an IC50 [5] of 1 to 10 nM and an IC50 [6] of 1 to 10 nM. For the same molecule, the IC50 [7] was 1 to 10 nM, the IC50 [8] was 1 to 10 nM and the IC50 [9] was 10 to 100 nM. The IC50 [10] was 1 to 10 nM and the IC50 [11] was 0.1 to 1 nM.

`CC[C@@]1(O)C(=O)OCc2c1cc1n(c2=O)Cc2c-1nc1cc3c(cc1c2CNC(=O)CO)OCO3` [Compound 4a] gave an IC50 [1] of 1 to 10 nM, an IC50 [2] of 10 to 100 nM and an IC50 [3] of 10 to 100 nM. It also gave an IC50 [4] of 10 to 100 nM, an IC50 [5] of 1 to 10 nM and an IC50 [6] of 10 to 100 nM. The IC50 [7] was 10 to 100 nM, the IC50 [8] was 1 to 10 nM and the IC50 [9] was 10 to 100 nM. For the same molecule, the IC50 [10] was 1 to 10 nM and the IC50 [11] was 10 to 100 nM.

`CC[C@@]1(O)C(=O)OCc2c1cc1n(c2=O)Cc2c-1nc1cc3c(cc1c2CNC(=O)CN)OCO3` [Compound 4b] gave an IC50 [1] of 10 to 100 nM, an IC50 [2] of 100 to 1000 nM and an IC50 [3] of 100 to 1000 nM. It also gave an IC50 [4] of 100 to 1000 nM, an IC50 [5] of 10 to 100 nM and an IC50 [6] of 10 to 100 nM. The IC50 [7] was 10 to 100 nM, the IC50 [8] was 10 to 100 nM and the IC50 [10] was 100 to 1000 nM. The IC50 [11] was 10 to 100 nM.

`CC[C@@]1(O)C(=O)OCc2c1cc1n(c2=O)Cc2c-1nc1cc3c(cc1c2CN(C)C(=O)CN)OCO3` [Compound 4c] gave an IC50 [1] of 10 to 100 nM, an IC50 [2] of 10 to 100 nM and an IC50 [3] of 100 to 1000 nM. It also gave an IC50 [4] of 100 to 1000 nM, an IC50 [5] of 10 to 100 nM and an IC50 [6] of 1 to 10 nM. For the same molecule, the IC50 [7] was 10 to 100 nM, the IC50 [8] was 1 to 10 nM and the IC50 [9] was 100 to 1000 nM. It also gave an IC50 [10] of 100 to 1000 nM and an IC50 [11] of 10 to 100 nM.

`CC[C@@]1(O)C(=O)OCc2c1cc1n(c2=O)Cc2c-1nc1cc3c(cc1c2CNC(=O)CCN)OCO3` [Compound 4d] was tested, and the IC50 [1] was 10 to 100 nM, the IC50 [2] was 100 to 1000 nM and the IC50 [3] was 100 to 1000 nM. For the same molecule, the IC50 [4] was 100 to 1000 nM, the IC50 [5] was 1 to 10 nM and the IC50 [6] was 10 to 100 nM. It also gave an IC50 [7] of 100 to 1000 nM, an IC50 [8] of 10 to 100 nM and an IC50 [10] of 10 to 100 nM. For the same molecule, the IC50 [11] was 10 to 100 nM.

For `CC[C@@]1(O)C(=O)OCc2c1cc1n(c2=O)Cc2c-1nc1cc3c(cc1c2CNC(=O)[C@@H](N)CCC(=O)O)OCO3` [Compound 4e], the IC50 [3] was 100 to 1000 nM, the IC50 [6] was 100 to 1000 nM and the IC50 [7] was 100 to 1000 nM. The IC50 [8] was 100 to 1000 nM.

`CC[C@@]1(O)C(=O)OCc2c1cc1n(c2=O)Cc2c-1nc1cc3c(cc1c2CNC)OCO3` [Compound 5] gave an IC50 [1] of 1 to 10 nM, an IC50 [2] of 1 to 10 nM and an IC50 [3] of 10 to 100 nM. For the same molecule, the IC50 [4] was 10 to 100 nM, the IC50 [5] was 1 to 10 nM and the IC50 [6] was 1 to 10 nM. The IC50 [7] was 1 to 10 nM, the IC50 [8] was 1 to 10 nM and the IC50 [9] was 10 to 100 nM. The IC50 [10] was 1 to 10 nM and the IC50 [11] was 1 to 10 nM.

Molecule `CC[C@@]1(O)C(=O)OCc2c1cc1n(c2=O)Cc2c-1nc1cc3c(cc1c2CNCCNC(C)C)OCO3` [Compound 5m] has an IC50 [1] of 10 to 100 nM, an IC50 [2] of 10 to 100 nM and an IC50 [3] of 100 to 1000 nM. The IC50 [4] was 100 to 1000 nM, the IC50 [5] was 10 to 100 nM and the IC50 [6] was 1 to 10 nM. It also gave an IC50 [7] of 10 to 100 nM, an IC50 [8] of 10 to 100 nM and an IC50 [10] of 100 to 1000 nM. For the same molecule, the IC50 [11] was 10 to 100 nM.

In the case of `CC[C@@]1(O)C(=O)OCc2c1cc1n(c2=O)Cc2c-1nc1cc3c(cc1c2-c1ccc(F)cc1)OCO3` [Compound 6], the IC50 [1] is reported as 1 to 10 nM, the IC50 [2] is reported as 1 to 10 nM and the IC50 [3] is reported as 1 to 10 nM. It also gave an IC50 [5] of 1 to 10 nM, an IC50 [6] of 0.1 to 1 nM and an IC50 [7] of 0.1 to 1 nM. For the same molecule, the IC50 [8] was 0.1 to 1 nM, the IC50 [9] was 0.1 to 1 nM and the IC50 [10] was 1 to 10 nM. It also gave an IC50 [11] of 0.1 to 1 nM.

In the case of `CCC(C)c1c2c(nc3cc4c(cc13)OCO4)-c1cc3c(c(=O)n1C2)COC(=O)[C@]3(O)CC` (stereo partly drawn) [Compound 6b], the IC50 [1] is reported as 1 to 10 nM, the IC50 [2] is reported as 1 to 10 nM and the IC50 [3] is reported as 1 to 10 nM. It also gave an IC50 [5] of 1 to 10 nM, an IC50 [6] of 1 to 10 nM and an IC50 [7] of 1 to 10 nM. For the same molecule, the IC50 [8] was 1 to 10 nM, the IC50 [9] was 1 to 10 nM and the IC50 [10] was 1 to 10 nM. The IC50 [11] was 1 to 10 nM.

With `CC[C@@]1(O)C(=O)OCc2c1cc1n(c2=O)Cc2c-1nc1cc3c(cc1c2C(C)C)OCO3` [Compound 6c] the IC50 [1] was 1 to 10 nM, the IC50 [2] was 1 to 10 nM and the IC50 [3] was 1 to 10 nM. For the same molecule, the IC50 [5] was 1 to 10 nM, the IC50 [6] was 0.1 to 1 nM and the IC50 [7] was 1 to 10 nM. The IC50 [8] was 1 to 10 nM, the IC50 [9] was 1 to 10 nM and the IC50 [10] was 1 to 10 nM. The IC50 [11] was 0.1 to 1 nM.
